According to ChEMBL document CHEMBL1133524 (J Med Chem, 2000):
≈ marks a conversion by molar mass, not a printed value. Calls of active or inactive are those of the source. The calls are words filed in the database; no cut-off is given here.

Key:
MCF7 = assay: Tested in vitro for cytotoxic activity against breast cancer (MCF-7) cell line; format: functional, Homo sapiens
Tubulin = Tubulin (Bos taurus, UniProt Q6B856+Q862L2+Q862F3); assay: Inhibition of bovine tubulin polymerization; format: functional
A549 = format: functional, Homo sapiens
Description: Tested in vitro for cytotoxic activity against lung carcinoma (A-549) cell line

SK-MEL-2 [1] = assay: Tested in vitro for cytotoxic activity against melanoma (SKMEL-2) cell line; format: functional, Homo sapiens
KB [2] = assay: Tested in vitro for cytotoxic activity against epidermoid carcinoma of the nasopharynx(KB) cell line; format: functional, Homo sapiens
U-87 MG [3] = assay: Tested in vitro for cytotoxic activity against glioblastoma (U-87-MG) cell line;NA means not active.; format: functional, cell-based; settings: Homo sapiens; U-87MG ATCC
HOS [4] = assay: Tested in vitro for cytotoxic activity against bone(HOS) cell line; format: functional, Homo sapiens
PC-3 [5] = assay: Tested in vitro for cytotoxic activity against prostate cancer (PC3) cell line; format: functional, Homo sapiens
HCT-8 [6] = assay: Tested in vitro for cytotoxic activity against ileocecal carcinoma (HCT-8) cell line; format: functional, Homo sapiens
KB [7] = assay: Tested in vitro for cytotoxic activity against P-glycoprotein-expressing epidermoid carcinoma of the nasopharynx(KB-VIN) cell line; format: functional, Homo sapiens
U-87 MG [8] = assay: Tested in vitro for cytotoxic activity against glioblastoma (U-87-MG) cell line; format: functional, Homo sapiens, U-87MG ATCC
1A9 [9] = assay: Tested in vitro for cytotoxic activity against Human ovarian cancer (IA9) cell line; format: functional
KB [10] = assay: Tested in vitro for cytotoxic activity against epidermoid carcinoma of the nasopharynx(KB) cell line; NA means Not active; format: functional, cell-based; settings: Homo sapiens
HCT-8 [11] = assay: Tested in vitro for cytotoxic activity against ileocecal carcinoma (HCT-8) cell line; NA means Not active; format: functional, cell-based; settings: Homo sapiens
1A9 [12] = assay: Tested in vitro for cytotoxic activity against Human ovarian cancer (IA9) cell line; NA means Not active; format: functional, cell-based
U-87 MG [13] = assay: Tested in vitro for cytotoxic activity against glioblastoma (U-87-MG) cell line; NA means Not active; format: functional, cell-based; settings: Homo sapiens; U-87MG ATCC
HOS [14] = assay: Tested in vitro for cytotoxic activity against bone(HOS) cell line; NA means Not active; format: functional, cell-based; settings: Homo sapiens
SK-MEL-2 [15] = assay: Tested in vitro for cytotoxic activity against melanoma (SKMEL-2) cell line; NA means Not active; format: functional, cell-based; settings: Homo sapiens
1A9 [16] = assay: Tested in vitro for cytotoxic activity against human ovarian cancer (IA9)cell line; format: functional
PC-3 [17] = assay: Tested in vitro for cytotoxic activity against prostate cancer (PC3) cell line; NA means Not active; format: functional, cell-based; settings: Homo sapiens
Tubulin (Bos taurus) = Tubulin (Bos taurus) (UniProt Q6B856+Q862L2+Q862F3); assay: Tested for inhibition of radioligand colchicine binding to bovine tubulin; format: protein assay; settings: concentration not given here

IC50 (Tubulin) [µM]	Structure (SMILES)	ED50 (MCF7) [µg/mL]	ED50 (A549) [µg/mL]	ED50 (SK-MEL-2 [1]) [µg/mL]	ED50 (KB [2]) [µg/mL]	ED50 (HOS [4]) [µg/mL]	ED50 (PC-3 [5]) [µg/mL]	ED50 (HCT-8 [6]) [µg/mL]	ED50 (KB [7]) [µg/mL]	ED50 (U-87 MG [8]) [µg/mL]	ED50 (1A9 [9]) [µg/mL]	ED50 (U-87 MG [13])	other results
> 40	COc1cccc(C2NC(=O)c3ccccc3N2)c1OC (centres undefined)	> 20	> 20	< 20	> 20	> 20	> 20	> 20	8.6 (≈ 30.2 µM)				Inhibition (KB [2]): 41%; ED50 (U-87 MG [3]): inactive; Inhibition (PC-3 [5]): 20%
1.5	COc1cccc(C2NC(=O)c3cc(Cl)ccc3N2)c1 (centres undefined)	16 (≈ 55.4 µM)	0.6 (≈ 2.08 µM)	< 2.5	0.95 (≈ 3.29 µM)	20 (≈ 69.3 µM)	2.5 (≈ 8.66 µM)	0.48 (≈ 1.66 µM)	0.42 (≈ 1.45 µM)	> 20	0.27 (≈ 0.935 µM)		
5.6	COc1cccc(C2NC(=O)c3ccccc3N2)c1 (centres undefined)	> 20	3 (≈ 11.8 µM)	> 20	3 (≈ 11.8 µM)	> 20	> 20	1.5 (≈ 5.9 µM)	1.2 (≈ 4.72 µM)	> 20	1 (≈ 3.93 µM)		
	COc1cccc(-c2nc(O)c3cc(N(C)C)ccc3n2)c1	0.85 (≈ 2.88 µM)	14 (≈ 47.4 µM)	19 (≈ 64.3 µM)	10 (≈ 33.9 µM)	> 20	15 (≈ 50.8 µM)		0.42 (≈ 1.42 µM)	> 20	0.49 (≈ 1.66 µM)		
	COc1cccc(-c2nc(O)c3cc(Cl)ccc3n2)c1		3.2 (≈ 11.2 µM)	4.8 (≈ 16.7 µM)		17 (≈ 59.3 µM)	4.5 (≈ 15.7 µM)	6 (≈ 20.9 µM)	6.5 (≈ 22.7 µM)	10 (≈ 34.9 µM)	> 20		
	COc1cccc(-c2nc(O)c3cc(N4CCOCC4)ccc3n2)c1	4.5 (≈ 13.3 µM)		4.8 (≈ 14.2 µM)	8.2 (≈ 24.3 µM)				3.7 (≈ 11 µM)	20 (≈ 59.3 µM)	3.8 (≈ 11.3 µM)		
	COc1cc(OC)cc(-c2nc(O)c3ccccc3n2)c1	> 20	> 20	> 20			> 20		> 20			inactive	ED50 (KB [10]): inactive; ED50 (HCT-8 [11]): inactive; ED50 (1A9 [12]): inactive; ED50 (HOS [14]): inactive
> 40	COc1ccc(C2NC(=O)c3ccccc3N2)c(OC)c1 (centres undefined)	> 20	> 20	> 20	> 20	> 20	> 20	> 20	7.6 (≈ 26.7 µM)			inactive	Inhibition (KB [2]): 43%; Inhibition (HOS [4]): 40%
	COc1cccc(-c2nc(O)c3ccccc3n2)c1	26 (≈ 103 µM)	> 20	> 20		> 20	> 20	> 20	> 20		> 20	inactive	ED50 (KB [10]): inactive
	COc1ccc(-c2nc(O)c3ccccc3n2)cc1	> 20	> 20	> 20	> 20	> 20	> 20	> 20	> 20		> 20		ED50 (U-87 MG [3]): inactive
0.32	COc1cccc(-c2cc(O)c3cc(N4CCCC4)ccc3n2)c1												
> 40	COc1ccccc1C1NC(=O)c2ccccc2N1 (centres undefined)	> 20	> 20	< 20	> 20	> 20	> 20	> 20	10.2 (≈ 40.1 µM)			inactive	Inhibition (KB [2]): 32%; Inhibition (PC-3 [5]): 30%
> 40	COc1ccc(C2NC(=O)c3ccccc3N2)cc1 (centres undefined)	> 20	> 20	> 20	> 20	> 20	> 20	> 20	> 20		20 (≈ 78.7 µM)	inactive	Inhibition (PC-3 [5]): 14%; Inhibition (KB [7]): 39%
	COc1cccc(-c2nc(O)c3ccccc3n2)c1OC	20 (≈ 70.8 µM)	> 20				20 (≈ 70.8 µM)		> 20			inactive	ED50 (KB [10]): inactive; ED50 (HCT-8 [11]): inactive; ED50 (SK-MEL-2 [15]): inactive; ED50 (1A9 [12]): inactive; ED50 (HOS [14]): inactive
12	COc1cc(OC)cc(C2NC(=O)c3ccccc3N2)c1 (centres undefined)	> 20	5 (≈ 17.6 µM)	4.4 (≈ 15.5 µM)	4.7 (≈ 16.5 µM)	> 20	> 20	3 (≈ 10.6 µM)	1.6 (≈ 5.63 µM)	> 20			
	COc1cccc(-c2nc(O)c3cc4c(cc3n2)OCO4)c1	> 20	> 20	> 20	> 20	> 20	> 20		> 20		> 20	inactive	ED50 (HCT-8 [11]): inactive
	COc1ccc(OC)c(-c2nc(O)c3ccccc3n2)c1	> 20	> 20	> 20	> 20	> 20	> 20	> 20	> 20		> 20	inactive	
	COc1cccc(-c2nc(O)c3cc(N4CCCCC4)ccc3n2)c1	8.5 (≈ 25.3 µM)	2.8 (≈ 8.35 µM)	4.5 (≈ 13.4 µM)	10 (≈ 29.8 µM)		10 (≈ 29.8 µM)	4.3 (≈ 12.8 µM)	0.6 (≈ 1.79 µM)	9 (≈ 26.8 µM)	0.9 (≈ 2.68 µM)		
	COc1cccc(-c2nc(O)c3cc(OC)ccc3n2)c1	8 (≈ 28.3 µM)		> 20		> 20	> 20		3.5 (≈ 12.4 µM)	> 20	3.4 (≈ 12 µM)		
> 40	COc1ccc(C2NC(=O)c3ccccc3N2)cc1OC (centres undefined)	20 (≈ 70.3 µM)	> 20	> 20	> 20	> 20	> 20	> 20	16 (≈ 56.3 µM)			inactive	Inhibition (KB [2]): 28%; Inhibition (HOS [4]): 24%; Inhibition (PC-3 [5]): 30%
	COc1cccc(-c2nc(O)c3cc(F)ccc3n2)c1	> 20		> 20	> 20		20 (≈ 74 µM)	> 20	18 (≈ 66.6 µM)	> 20			ED50 (1A9 [12]): inactive; ED50 (HOS [14]): inactive
	COc1ccccc1-c1nc(O)c2ccccc2n1	> 20	> 20		> 20	> 20			> 20			inactive	ED50 (1A9 [16]): > 20 µg/mL; ED50 (HCT-8 [11]): inactive; ED50 (SK-MEL-2 [15]): inactive; ED50 (PC-3 [17]): inactive
	COc1cccc(-c2nc(O)c3cc(OC)c(OC)cc3n2)c1	12 (≈ 38.4 µM)	> 20	18 (≈ 57.6 µM)		> 20	15 (≈ 48 µM)	> 20		> 20			
	COc1ccc(-c2nc(O)c3ccccc3n2)cc1OC	> 20	> 20	> 20	> 20	> 20	> 20	> 20	> 20		> 20	inactive	
	COc1cccc(-c2nc(O)c3cc(N4CCC(C)CC4)ccc3n2)c1	10 (≈ 28.6 µM)	6 (≈ 17.2 µM)	7.5 (≈ 21.5 µM)				4 (≈ 11.4 µM)	2.5 (≈ 7.15 µM)		0.8 (≈ 2.29 µM)		
	COc1cccc(-c2nc(O)c3cc(N4CCCC4)ccc3n2)c1	0.22 (≈ 0.685 µM)	0.5 (≈ 1.56 µM)	0.09 (≈ 0.28 µM)	0.23 (≈ 0.716 µM)	7 (≈ 21.8 µM)	15 (≈ 46.7 µM)	0.06 (≈ 0.187 µM)	0.1 (≈ 0.311 µM)		0.09 (≈ 0.28 µM)		inhibition (Tubulin (Bos taurus)): 24%
32	COc1ccc(OC)c(C2NC(=O)c3ccccc3N2)c1 (centres undefined)	> 20	> 20	> 20	> 20	> 20	> 20	> 20	8.4 (≈ 29.5 µM)	> 20	10 (≈ 35.2 µM)		Inhibition (KB [2]): 40%; Inhibition (HOS [4]): 40%
	COc1ccc(-c2nc(O)c3ccccc3n2)c(OC)c1	> 20	> 20	> 20	> 20	> 20	> 20	> 20	> 20	> 20			ED50 (1A9 [12]): inactive
